Data from PMC11234460, “In Silico Discovery of Stapled Peptide Inhibitor Targeting the Nur77‐PPARγ Interaction and Its Anti‐Breast‐Cancer Efficacy” (Advanced Science, 2024).
One block for each molecule: values may come before it. Where a SMILES comes first, the peptide text is derived from it. Bridges are numbered along the chain shown (N, C = ends). [ ]: non-standard residue; d: D form. S5 = C=CCCC[C@](C)(N)C(=O)O

How the values were obtained:
Solubility test in PBS = assay type: physicochemical; details: 1 mg in 50 µL, gradient diluted from 20 to 0.078125 mg mL^−1, OD at 600 nm (turbidity), plate reader
Method: Mix 1 mg ST‐CY14 or Csn‐B (Shanghai Sunny Biotech) in 50 µL PBS buffer, and then transfer 40 µL the suspension to a 96‐well plate. The suspension was gradient diluted from 20 to 0. 07 8125 mg mL^−1. OD values were measured at 600 nm on a Cytation 5 (Biotek, USA) plate reader. PBS was set as a blank control.

Nur77-PPARγ complex = biological target: T1, Nur77-PPARγ complex (Homo sapiens, UniProt P22736); experiment: NanoBiT assay of Nur77-PPARγ complex formation in HEK293T cells; assay type: cell-based; details: 1 × 10^−5 M peptide, 1 h, n = 3
T1 construct: expressed in transfected cells; host or cells: HEK293T
T1 sequence (P22736 whole entry, one chain of several): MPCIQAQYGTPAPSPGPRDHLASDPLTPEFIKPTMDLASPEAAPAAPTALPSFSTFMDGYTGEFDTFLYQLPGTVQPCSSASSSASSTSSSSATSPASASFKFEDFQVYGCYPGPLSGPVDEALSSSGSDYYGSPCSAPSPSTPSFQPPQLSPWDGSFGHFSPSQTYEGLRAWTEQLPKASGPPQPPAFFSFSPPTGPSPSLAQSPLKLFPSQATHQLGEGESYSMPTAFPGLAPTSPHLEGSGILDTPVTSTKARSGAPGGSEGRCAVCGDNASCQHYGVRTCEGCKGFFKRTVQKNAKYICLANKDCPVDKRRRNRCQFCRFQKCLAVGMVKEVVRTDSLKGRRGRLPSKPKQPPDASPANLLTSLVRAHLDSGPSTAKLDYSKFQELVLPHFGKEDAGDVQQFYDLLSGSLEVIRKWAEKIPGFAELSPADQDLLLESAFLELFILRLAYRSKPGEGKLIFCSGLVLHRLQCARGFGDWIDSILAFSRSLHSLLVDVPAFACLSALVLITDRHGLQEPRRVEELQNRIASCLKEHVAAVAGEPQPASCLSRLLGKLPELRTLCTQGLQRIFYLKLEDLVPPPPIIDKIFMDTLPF
Method: HEK293T cells were seeded in a poly‐d‐lysine‐coated black 96‐well cell culture plate at 10 000 cells per well in 100 µL culture medium. The next day, the master mix of 100 ng receptor construct containing the PPARγ‐LargeBit and SmallBit‐Nur77 plasmids (w/w, 50 ng:50 ng) was diluted in Opti‐MEM Medium (Gibco, 11058‐021), then P3000 Reagent was added. Meanwhile, 0.15 µL Lipofectamine 3000 reagent (ThermoFisher, L3000015) was added to 5 µL Opti‐MEM Medium. Subsequently, diluted DNA was added to Lipofectamine 3000 reagent (V/V, 1:1) and incubated for 15 min at room temperature. A mixture containing the above plasmids and Lipofectamine 3000 was prepared and added to each well. After 24 h, the cells were treated with 1 × 10^−5 M peptides (TAT, T‐CY14, S‐CY14, and ST‐CY14) or variable concentrations of ST‐CY‐14 (0.1/0.2/0.5/1/2/5/10/20/40 × 10^−6 M) for 1 h. The culture medium was replaced with 90 µL Tyrode's solution (Solarbio, T1420). Then, 10 µL furimazine (5 × 10^−5 M) was added to each well and the luminescence signal was measured every 86 s for 1 h at 37 °C.

[1] = CD spectroscopy, α-helicity; assay type: physicochemical; details: 5 × 10^−5 M peptide in H2O, 25 °C, 1 mm cuvette, 185-260 nm
Method: The detection wavelengths of the peptides were 214 and 254 nm. Solvent A: H2O (containing 0.1% TFA) and solvent B: acetonitrile (containing 0.1% TFA) were used as solvents in linear gradient mixtures. Peptide purification was performed by semi‐preparative HPLC using an XBridge Prep C18 column (19 × 250 mm, 10 µm particle size, flow rate of 20 mL min^−1). Solvents A and B were the same as those in the peptide analysis procedure. The peptides were dissolved in H2O to a final concentration of 5 × 10^−5 M. The purified peptide was detected using a mass spectrometer (6410 Triple Quad LC/MS, Agilent, USA) (Table S2, Supporting Information). The solvent was 80% methanol and 20% H2O (containing 0.1% formic acid). The CD spectra were obtained with a 1 mm quartz cuvette on a BRIGHT TIME Chirasca (Applied Photophysics, Britain) spectropolarimeter with a scan wavelength between 185–260 nm at 25 °C. The helicity of each peptide was calculated by the literature equation.^[ [24] ^]

MDA-MB-231 cells [2] = experiment: Western blot of Nur77, CD36 and FABP4; assay type: cell-based
Method: (§1) MCF7 and MDA‐MB‐231 cells were treated with various concentrations of peptide. The cells were then collected and lysed in NP40 lysis buffer. Total protein was quantified using a BCA assay kit (Beyotime, P0010S). The proteins were separated by SDS‐PAGE and transferred onto a PVDF membrane. The PVDF membrane was blocked in TBST containing 5% non‐fat milk, and then incubated with primary antibodies overnight at 4 °C. Subsequently, membranes were incubated with horseradish peroxidase‐conjugated antirabbit or antimouse IgG secondary antibody for 1 h at room temperature. The membranes were analyzed by a Tanon‐5200 Multi Gel Imaging Analysis System (Tanon) and quantified by ImageJ software.

MDA-MB-231 cells [3] = experiment: Transwell cell migration analysis; assay type: cell-based; details: MDA-MB-231, 12 h
Method: (§2) 600 µL DMEM complete medium was added to the lower chamber of the Transwell. Next, 2×10^4 cells in 100 µL DMEM medium, containing 1, 2, 5, 10, or 2 × 10^−5 M peptides, were added to the upper chamber of the Transwell. The cells were incubated for 12 h at 37 °C and 5% CO2. After the incubation period, the medium was discarded, and the chamber was washed with PBS. The cells were then fixed with 4% paraformaldehyde for 20 min. The upper chamber was subsequently soaked in crystal violet for 20 min, washed with PBS, and observed under a microscope for analysis.

MCF7 cells [4] = experiment: Transwell cell migration analysis; assay type: cell-based, human; details: MCF7, 12 h
Method: as §2

MCF7 cells [5] = experiment: Scratch (wound-healing) assay; assay type: cell-based, human; details: MCF7, 12 h
Method: (§3) MCF7 and MDA‐MB‐231 cells were seeded in 6‐well plates and cultured overnight. Once the cell density reached 90%, a line was scratched along the center of the 6‐well plate and images were taken randomly in the scratch domain under a microscope. The cells in each well were then treated with peptides of varying concentrations for 12 h, after which images were taken again in the scratch domain. The formula used to calculate the scratch healing rate was as follows: Scratch healing rate (%) = [(Scratch area at 0 h – Scratch area at 12 h) […] Scratch area at 0 h] × 100%.

MDA-MB-231 cells [6] = experiment: Scratch (wound-healing) assay; assay type: cell-based; details: MDA-MB-231, 12 h
Method: as §3

α-chymotrypsin = experiment: Protease stability in α-chymotrypsin solution; assay type: in vitro ADME; details: α-chymotrypsin solution; α-chymotrypsin 0.5 ng µL^−1 in PBS (5 × 10^−2 M, 2 × 10^−3 M CaCl2, pH 7.4); 100 µL of 1 × 10^−3 M peptide + 1 mL enzyme; room temperature; 5-480 min; quenched with 1 M HCl; analytical HPLC at 214 nm
Method: The peptides were dissolved in PBS (pH 7.4) to a final concentration of 1 × 10^−3 M. α‐Chymotrypsin was dissolved in PBS (5 × 10^−2 M, containing 2 × 10^−3 M CaCl2, pH 7.4) to a final concentration of 0.5 ng µL^−1. Subsequently, 100 µL peptides were incubated with α‐chymotrypsin (1 mL) at room temperature, and 100 µL of the digestion mixture was collected at different times (5/10/20/30/60/120/240/480 min) and added to a centrifuge tube containing 20 µL of 1 M HCl to quench the enzymatic reaction. The solution of α‐Chymotrypsin peptide fragments was monitored by analytical HPLC to determine the fraction of protease degradation at 214 nm.

MCF7 cells [7] = experiment: Western blot of Nur77, CD36 and FABP4; assay type: cell-based, human
Method: as §1

Solubility in PBS (Solubility test in PBS): ≈ 1 mg mL^−1
Compound: CCCCCCCC(=O)c1c(O)cc(O)cc1CC(=O)OCC [Csn-B, cytosporone B, reference compound]

Effect on NanoBiT luminescence (Nur77-PPARγ complex) (Nur77-PPARγ complex): minimal effects on the luminescence
α-Helicity (CD) [1]: 15.6%
Compound: C[C@@H](O)[C@@H]1NC(=O)[C@H](CCCNC(=N)N)NC(=O)[C@H](CCCNC(=N)N)NC(=O)[C@@](C)(NC(=O)[C@H](Cc2ccccc2)NC(=O)CNC(=O)[C@H](CCCCN)NC(=O)[C@H](CS)NC(=O)CNC(=O)[C@H](CCC(=O)O)NC(=O)[C@@H](N)CS)CCCC=CCCC[C@@](C)(C(=O)N[C@@H](CCCNC(=N)N)C(=O)N[C@@H](Cc2ccc(O)cc2)C(N)=O)NC1=O [S-CY14] (H-CEGCKGF[S5]RRT[S5]RY-NH2; staple 8-12)

Compound: CC[C@H](C)[C@H](NC(=O)[C@@H](NC(=O)[C@H](CCCNC(=N)N)NC(=O)[C@H](CCCNC(=N)N)NC(=O)[C@H](Cc1ccccc1)NC(=O)[C@H](Cc1ccccc1)NC(=O)CNC(=O)[C@H](CCCCN)NC(=O)[C@H](CS)NC(=O)CNC(=O)[C@H](CCC(=O)O)NC(=O)[C@@H](N)CS)[C@@H](C)O)C(=O)N[C@@H](CCCNC(=N)N)C(=O)N[C@@H](Cc1ccc(O)cc1)C(=O)N[C@@H](Cc1ccc(O)cc1)C(=O)NCC(=O)N[C@@H](CCCNC(=N)N)C(=O)N[C@@H](CCCCN)C(=O)N[C@@H](CCCCN)C(=O)N[C@@H](CCCNC(=N)N)C(=O)N[C@@H](CCCNC(=N)N)C(=O)N[C@@H](CCC(N)=O)C(=O)N[C@@H](CCCNC(=N)N)C(=O)N[C@@H](CCCNC(=N)N)C(=O)N[C@@H](CCCNC(=N)N)C(N)=O [T-CY14] (H-CEGCKGFFRRTIRYYGRKKRRQRRR-NH2)
CD36 and FABP4 protein expression (immunoblot) (MDA-MB-231 cells [2]): had some effect, but its efficacy was much lower
Nur77 protein expression (immunoblot) (MDA-MB-231 cells [2]): increase in Nur77 expression
Transwell transmigration (MDA-MB-231 cells [3]): inhibited the transmigration
Transwell transmigration (MCF7 cells [4]): inhibited the transmigration
Scratch healing (MCF7 cells [5]): suppressed the scratch healing
Scratch healing (MDA-MB-231 cells [6]): suppressed the scratch healing
half-life at 90.9 µM (α-chymotrypsin): 4.94 min
CD36 and FABP4 protein expression (immunoblot) (MCF7 cells [7]): had some effect, but its efficacy was much lower
Nur77 protein expression (immunoblot) (MCF7 cells [7]): increase in Nur77 expression

Effect on NanoBiT luminescence (Nur77-PPARγ complex) (Nur77-PPARγ complex): minimal effects on the luminescence
Compound: N=C(N)NCCC[C@H](NC(=O)[C@H](CCCNC(=N)N)NC(=O)[C@H](CCCNC(=N)N)NC(=O)[C@H](CCC(N)=O)NC(=O)[C@H](CCCNC(=N)N)NC(=O)[C@H](CCCNC(=N)N)NC(=O)[C@H](CCCCN)NC(=O)[C@H](CCCCN)NC(=O)[C@H](CCCNC(=N)N)NC(=O)CNC(=O)[C@@H](N)Cc1ccc(O)cc1)C(N)=O [TAT, reference compound]
